Results: EPA's ToxRefDB 2

How the values were obtained:
rat [1] = conditions: Sub-acute repeat dose toxicity, sprague dawley, Oral, Gavage/Intubation, dose end: 1 month, group: systemic
rat [2] = conditions: Fertility (Segment I), Oral, Gavage/Intubation, dose end: 6 GD
rat [3] = conditions: Fertility (Segment I); sprague dawley; Oral; Gavage/Intubation; dose end: 63 day; group: parental; systemic / in life observation / body weight / body weight + systemic / in life observation / body weight / body weight gain + systemic / in…
rabbit [4] = conditions: Prenatal developmental toxicity study, new zealand white, Oral, Gavage/Intubation, dose end: 19 GD
dog [5] = conditions: Chronic toxicity; beagle; Oral; Feed; dose end: 1 year; group: systemic; systemic / pathology microscopic / skeletal muscle / degeneration + systemic / pathology microscopic / skeletal muscle / infiltration …
rat [6] = conditions: Combined chronic toxicity/carcinogenicity, sprague dawley, Oral, [Not Specified], dose end: 104 week, group: systemic
rabbit [7] = conditions: Prenatal developmental toxicity study, new zealand white, Oral, Gavage/Intubation, dose end: 19 GD; remark: listed apart in the source
mouse = conditions: Carcinogenicity; cd1; Oral; Feed; dose end: 78 week; group: systemic; systemic / in life observation / body weight / body weight gain + systemic / organ weight / liver / relative to body weight + systemic / …
rat [8] = conditions: Prenatal developmental toxicity study, sprague dawley, Oral, Gavage/Intubation, dose end: 15 GD
dog [9] = conditions: Chronic toxicity; beagle; Oral; Feed; dose end: 52 week; group: systemic; systemic / hematology / anemia / anemia - hemolytic + systemic / hematology / platelet / platelet + systemic / in life observation / body …
rat [10] = conditions: Multigenerational reproductive toxicity study, other, Oral, Feed, dose end: 2 generation
[11] = systemic / hematology / hemoglobin distribution width (hdw) / hemoglobin distribution width (hdw) + systemic / hematology / platelet / …
[12] = group: developmental, developmental / developmental malformation / bladder / [other]
[13] = group: parental, systemic / in life observation / body weight / body weight
[14] = group: developmental, developmental / developmental malformation / bone / short supernumerary
[15] = group: maternal, systemic / in life observation / body weight / body weight gain + systemic / in life observation / food consumption / food consumption
[16] = group: maternal, systemic / in life observation / body weight / body weight gain + systemic / in life observation / food consumption / food consumption + …
[17] = systemic / pathology gross / eye / discolored + systemic / pathology microscopic / eye / inflammation + systemic / pathology microscopic / …
[18] = group: developmental, developmental / developmental malformation / bone / supernumerary
[19] = group: maternal, systemic / in life observation / body weight / body weight gain + systemic / in life observation / clinical signs / defecation + systemic / …
[20] = group: developmental, developmental / developmental malformation / bone / delayed ossification + systemic / in life observation / body weight / fetal weight
[21] = group: developmental, developmental / developmental malformation / bone / delayed ossification + systemic / in life observation / body weight / fetal weight + …
[22] = group: maternal, systemic / in life observation / body weight / body weight + systemic / in life observation / body weight / body weight gain + systemic / in…
[23] = group: offspring, developmental / offspring survival late / viability index / viability index
[24] = group: offspring, developmental / offspring survival late / viability index / viability index + systemic / in life observation / body weight / offspring (pup…
[25] = group: parental, systemic / organ weight / liver / absolute + systemic / organ weight / liver / relative to body weight + systemic / pathology microscopic / …

Structure (SMILES): CCN1CCC2(CC1)COc1cc3c(cc12)N(C(=O)c1ccc(-c2ccc(-c4nnc(C)o4)cc2C)cc1)CC3.Cl
- LOAEL (rat [1]; [11]): > 30 mg/kg/day
- NEL (rat [1]; [11]): 3 mg/kg/day
- NOAEL (rat [1]; [11]): ≥ 30 mg/kg/day
- LEL (rat [1]; systemic / hematology / platelet / platelet + systemic / hematology / reticulocyte / reticulocyte): 10 mg/kg/day
- LEL (rat [2]; [12]): 30 mg/kg/day
- LOAEL (rat [2]; [12]): > 30 mg/kg/day
- NEL (rat [2]; [12]): 10 mg/kg/day
- NOAEL (rat [2]; [12]): ≥ 30 mg/kg/day
- LEL (rat [2]; [13]): 30 mg/kg/day
- LOAEL (rat [2]; [13]): > 30 mg/kg/day
- NEL (rat [2]; [13]): 10 mg/kg/day
- NOAEL (rat [2]; [13]): ≥ 30 mg/kg/day
- LEL (rat [3]): 30 mg/kg/day
- LOAEL (rat [3]): > 30 mg/kg/day
- NEL (rat [3]): 10 mg/kg/day
- NOAEL (rat [3]): ≥ 30 mg/kg/day

Structure (SMILES): Cc1cnc(C2=NC(C)(C(C)C)C(=O)N2)c(C(=O)O)c1 (centres undefined) [Imazapic]
- LEL (rabbit [4]; [14]): 350 mg/kg/day
- LOAEL (rabbit [4]; [14]): > 700 mg/kg/day
- NEL (rabbit [4]; [14]): 175 mg/kg/day
- NOAEL (rabbit [4]; [14]): ≥ 700 mg/kg/day
- LEL (rabbit [4]; [15]): 500 mg/kg/day
- LOAEL (rabbit [4]; [15]): 500 mg/kg/day
- NEL (rabbit [4]; [16]): 350 mg/kg/day
- NOAEL (rabbit [4]; [16]): 350 mg/kg/day
- LEL (dog [5]): 137 mg/kg/day
- LOAEL (dog [5]): 137 mg/kg/day
- NEL (dog [5]): < 137 mg/kg/day
- NOAEL (dog [5]): < 137 mg/kg/day

Structure (SMILES): CS(=O)(=O)c1cc(C(F)(F)F)ccc1C(=O)c1cnoc1C1CC1 [Isoxaflutole]
- NEL (rat [6]; systemic / organ weight / liver / absolute + systemic / organ weight / liver / relative to body weight + systemic / pathology gross / liver…): 2 mg/kg/day
- LEL (rat [6]; [17]): 20 mg/kg/day
- LOAEL (rat [6]; [17]): 20 mg/kg/day
- NOAEL (rat [6]; [17]): 2 mg/kg/day
- LEL (rabbit [7]; [18]): 5 mg/kg/day
- LOAEL (rabbit [7]; [18]): 5 mg/kg/day
- NEL (rabbit [7]; [18]): < 5 mg/kg/day
- NOAEL (rabbit [7]; [18]): < 5 mg/kg/day
- LEL (rabbit [7]; [19]): 100 mg/kg/day
- LOAEL (rabbit [7]; [19]): 100 mg/kg/day
- NEL (rabbit [7]; [19]): 20 mg/kg/day
- NOAEL (rabbit [7]; [19]): 20 mg/kg/day
- LEL (mouse): 64.4 mg/kg/day
- LOAEL (mouse): 64.4 mg/kg/day
- NEL (mouse): 3.2 mg/kg/day
- NOAEL (mouse): 3.2 mg/kg/day
- LEL (rat [8]; [20]): 100 mg/kg/day
- LOAEL (rat [8]; [20]): 100 mg/kg/day
- NEL (rat [8]; [21]): 10 mg/kg/day
- NOAEL (rat [8]; [21]): 10 mg/kg/day
- LEL (rat [8]; [22]): 500 mg/kg/day
- LOAEL (rat [8]; [22]): 500 mg/kg/day
- NEL (rat [8]; [22]): 100 mg/kg/day
- NOAEL (rat [8]; [22]): 100 mg/kg/day
- LEL (dog [9]): 453 mg/kg/day
- LOAEL (dog [9]): 453 mg/kg/day
- NEL (dog [9]): 44.8 mg/kg/day
- NOAEL (dog [9]): 44.8 mg/kg/day
- LEL (rat [10]; [23]): 17.4 mg/kg/day
- LOAEL (rat [10]; [23]): 17.4 mg/kg/day
- NEL (rat [10]; [24]): 1.76 mg/kg/day
- NOAEL (rat [10]; [24]): 1.76 mg/kg/day
- LEL (rat [10]; [25]): 17.4 mg/kg/day
- LOAEL (rat [10]; [25]): 17.4 mg/kg/day
- NEL (rat [10]; [25]): 1.76 mg/kg/day
- NOAEL (rat [10]; [25]): 1.76 mg/kg/day
